Assay results published in ChEMBL document CHEMBL1201862, “PubChem BioAssay data set” (2004).
“And” between values parts separate entries of the source, which are not always exact repeats. Equal values may be shown once. The source made the active and inactive calls.

Tests used:
Jurkat = assay: antigen receptor-induced NF-kB inhibitors, dose response, Jurkat, luciferase reporter, luminescence, B- and T-cell (AID 489004); format: functional, cell-based; settings: Homo sapiens;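 also: NF-kB luciferase reporter Jurkat cells stimulated with PMA plus ionomycin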
INS1 = assay: beta cell apoptosis inhibitors, cytokine rescue, dose response, luminescence, retest (AID 449756); format: functional, cell-based; settings: Rattus norvegicus;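 also: cell death triggered by IL-1 beta plus TNF-alpha plus IFN-gamma mixture; protective hits raise ATP signal compared with cytokine alone wells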
[1] = target: T1, Serine/threonine-protein phosphatase (Candida dubliniensis (strain CD36 / CBS 7987 / NCPF 3949 / NRRLY-17841) (Yeast), UniProt B9W6M3); assay: calcineurin pathway inhibitors in yeast reporter, dose response, S. cerevisiae, CDRE-lacZ, luminescence, secondary (AID 2388); format: functional, cell-based;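 also: yeast reporter cells carrying a calcineurin-responsive lacZ construct stimulated with calcium chloride; luminescent beta-galactosidase reporter signal in whole cells rather than isolated phosphatase activity; potency for inhibition where a drop in reporter signal means calcineurin blockade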
T1 sequence (B9W6M3 whole entry): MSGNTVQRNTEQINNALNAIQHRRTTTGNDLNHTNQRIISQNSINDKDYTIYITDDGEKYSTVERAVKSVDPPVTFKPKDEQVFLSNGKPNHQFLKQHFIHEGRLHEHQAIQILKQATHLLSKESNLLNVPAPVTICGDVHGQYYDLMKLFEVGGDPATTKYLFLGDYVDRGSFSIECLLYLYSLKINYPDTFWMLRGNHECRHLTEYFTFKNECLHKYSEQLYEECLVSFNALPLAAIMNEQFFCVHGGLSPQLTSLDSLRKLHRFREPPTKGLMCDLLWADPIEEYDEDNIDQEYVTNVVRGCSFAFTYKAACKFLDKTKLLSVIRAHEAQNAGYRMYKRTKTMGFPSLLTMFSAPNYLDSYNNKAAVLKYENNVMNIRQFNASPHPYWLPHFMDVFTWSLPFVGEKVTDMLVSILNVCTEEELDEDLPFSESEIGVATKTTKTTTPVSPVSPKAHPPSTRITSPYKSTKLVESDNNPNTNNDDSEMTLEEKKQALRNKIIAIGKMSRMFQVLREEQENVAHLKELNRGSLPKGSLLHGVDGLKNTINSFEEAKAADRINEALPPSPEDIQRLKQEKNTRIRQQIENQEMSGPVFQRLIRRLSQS

[2] = cytotoxicity in HEK-293T NF-kB-Luc cells, dose response, cytotoxicity control for B/T-cell NF-kB inhibitor project, cell-based, uHTS hits (AID 489019); format: functional;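 also: IC50 reflects cytotoxicity as loss of cell viability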
[3] = inhibitors of SNCA 5'UTR-driven reporter translation, confirmation, H4 neuroglioma cells, luminescence (AID 1988); format: functional, cell-based
[4] = target: COUP transcription factor 2 (Homo sapiens, UniProt P24468); assay: Luminescence-based cell-based high throughput dose response assay to identify inhibitors of COUP-TFII (NR2F2).; format: functional;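 also: HEK293 cells transiently cotransfected with COUP-TFII expression vector and reporter; luciferase reporter luminescence driven by COUP-TFII from the pX2-168 reporter plasmid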
[5] = control 3'UTR Renilla luciferase suppression, dose response, counter-screen for Shn3 inhibitor project, cell-based, Clone20-Shn3RL, cherry-picked (AID 624133); format: functional
cells = format: functional, cell-based; settings: HEK-CNG
[6] = HepG2 cell cytotoxicity, dose response, cytotoxicity control for Shn3 inhibitor project, CellTiter-Glo, cherry-picked (AID 624134); format: functional, cell-based
[7] = inhibitors of firefly luciferase expression or activity, dose response, H4 neuroglioma cells, luminescence (AID 1990); format: functional, cell-based
[8] = Shn3 3'UTR reporter inhibitors, dose response, cell-based, Clone20 osteoblasts, firefly luciferase, cherry-picked (AID 624132); format: functional;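 also: firefly luciferase luminescence from reporter carrying the Shn3 3'UTR in osteoblasts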
[9] = C. albicans growth with fluconazole, confirmation, fluorescence, retest (AID 2467); format: functional, cell-based
[10] = NIH-3T3 fibroblast cytotoxicity, dose response, cytotoxicity control, cell-based, fluorescence, Alamar Blue, secondary assay (AID 2327); format: functional;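 also: NIH-3T3 mouse fibroblasts cultured with fluconazole at 8 µg/mL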
[11] = target: ATP-dependent molecular chaperone HSP82 (Candida albicans (strain WO-1) (Yeast), UniProt C4YTQ8); assay: loss of DOC-induced GRE-beta-galactosidase reporter signal, dose response, Hsp90 inhibitor project, S. cerevisiae, luminescence (AID 2400); format: functional, cell-based;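 also: beta-galactosidase luminescence from glucocorticoid response element reporter as proxy for Hsp90 function; inhibitor potency where signal loss means Hsp90 inhibition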
Galanin receptor type 3 = target: T2, Galanin receptor type 3 (Homo sapiens, UniProt O60755); assay: Fluorescence-based cell-based primary high throughput dose response assay to identify antagonists of the Galanin Receptor 3 (GalR3).; format: functional
T2 sequence (O60755 whole entry): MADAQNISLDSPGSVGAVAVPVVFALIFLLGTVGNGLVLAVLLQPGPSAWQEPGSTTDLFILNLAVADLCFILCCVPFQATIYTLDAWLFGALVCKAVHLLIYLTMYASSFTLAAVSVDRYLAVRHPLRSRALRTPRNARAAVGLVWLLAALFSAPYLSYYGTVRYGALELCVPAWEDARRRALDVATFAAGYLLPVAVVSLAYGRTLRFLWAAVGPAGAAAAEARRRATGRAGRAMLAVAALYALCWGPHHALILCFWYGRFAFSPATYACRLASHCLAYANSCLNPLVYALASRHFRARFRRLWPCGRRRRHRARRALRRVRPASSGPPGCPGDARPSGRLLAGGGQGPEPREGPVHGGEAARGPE

[12] = Luminescence Cell-Based Dose Response HTS to Identify Inhibitors of 5'UTR Stem-Loop Driven Prion Protein mRNA Translation in H4 Neuroglioblastoma Cells. [Related pubchem assays: 1827 (Project Summary), 1813 (Primary HTS)]; format: functional
Hexokinase-1 = Hexokinase-1 (Homo sapiens, UniProt P19367); assay: HK1 enzyme inhibition by HKDC1 hits, SAR follow-up, selectivity assay for HKDC1 inhibitor project, biochemical, set 2, resazurin fluorescence coupled readout (AID 588356); format: functional
Hexokinase HKDC1 = Hexokinase HKDC1 (Homo sapiens, UniProt Q2TB90); assay: HKDC1 hexokinase inhibitors, SAR follow-up, biochemical, set 2 (AID 588355); format: functional
Kallikrein-7 = Kallikrein-7 (Homo sapiens, UniProt P49862); assay: Fluorescence Intensity-based biochemical primary high throughput dose response assay to identify activators of kallikrein-7 (K7) zymogen.
CAAX prenyl protease 2 [13] = target: CAAX prenyl protease 2 (Saccharomyces cerevisiae S288c, UniProt Q03530); format: biochemical
CAAX prenyl protease 2 [14] = target: CAAX prenyl protease 2 (Homo sapiens, UniProt Q9Y256); assay: human Rce1 protease inhibitors, dose response, biochemical, yeast membranes, quenched-peptide fluorescence, cherry-pick (AID 588849)
Trypsin = Trypsin (Sus scrofa, UniProt P00761); assay: porcine trypsin inhibitors, dose response, selectivity assay for Rce1 protease inhibitor project, biochemical, quenched peptide fluorescence, cherry-pick (AID 488789)
[15] = target: T3, Beta-2 adrenergic receptor (Homo sapiens, UniProt P07550); assay: Dose response for HTS for Beta-2AR agonists via FAP method from Powderset1.; format: functional
[16] = target: T3, Beta-2 adrenergic receptor; assay: beta2AR agonists driving receptor internalization, dose response, cell-based, FAP fluorogen, flow cytometry, cherry pick 1 (AID 588763); format: functional

T3 sequence (P07550 whole entry): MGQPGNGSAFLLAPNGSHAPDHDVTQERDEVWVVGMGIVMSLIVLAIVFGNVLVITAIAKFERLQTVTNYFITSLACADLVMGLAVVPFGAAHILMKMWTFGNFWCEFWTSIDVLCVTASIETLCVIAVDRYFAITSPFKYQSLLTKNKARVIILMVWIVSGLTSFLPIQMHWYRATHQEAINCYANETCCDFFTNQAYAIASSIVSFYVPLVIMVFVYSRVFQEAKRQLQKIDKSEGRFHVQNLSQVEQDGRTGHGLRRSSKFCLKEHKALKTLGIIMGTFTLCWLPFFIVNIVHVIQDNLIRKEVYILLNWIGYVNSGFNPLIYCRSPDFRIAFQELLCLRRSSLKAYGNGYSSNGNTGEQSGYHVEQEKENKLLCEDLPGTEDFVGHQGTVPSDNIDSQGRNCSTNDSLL
Chain of Kallikrein-7 (P49862 whole entry): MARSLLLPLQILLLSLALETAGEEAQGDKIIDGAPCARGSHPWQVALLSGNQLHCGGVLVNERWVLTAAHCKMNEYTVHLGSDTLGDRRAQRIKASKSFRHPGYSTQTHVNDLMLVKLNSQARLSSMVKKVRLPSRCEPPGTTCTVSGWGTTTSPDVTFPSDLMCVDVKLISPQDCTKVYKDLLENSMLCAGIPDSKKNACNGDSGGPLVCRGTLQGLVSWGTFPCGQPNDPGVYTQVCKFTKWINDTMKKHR
Chain of CAAX prenyl protease 2 (Homo sapiens, UniProt Q9Y256) (Q9Y256 whole entry): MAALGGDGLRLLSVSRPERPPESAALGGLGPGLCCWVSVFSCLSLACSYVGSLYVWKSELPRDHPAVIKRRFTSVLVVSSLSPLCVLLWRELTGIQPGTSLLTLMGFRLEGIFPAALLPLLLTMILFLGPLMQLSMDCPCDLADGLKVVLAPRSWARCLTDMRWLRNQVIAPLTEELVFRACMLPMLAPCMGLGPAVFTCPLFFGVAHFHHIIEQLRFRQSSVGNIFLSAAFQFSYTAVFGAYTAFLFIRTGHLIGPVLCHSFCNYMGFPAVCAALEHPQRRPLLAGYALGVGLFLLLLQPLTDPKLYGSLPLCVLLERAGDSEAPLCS
Chain of Hexokinase-1 (P19367 whole entry): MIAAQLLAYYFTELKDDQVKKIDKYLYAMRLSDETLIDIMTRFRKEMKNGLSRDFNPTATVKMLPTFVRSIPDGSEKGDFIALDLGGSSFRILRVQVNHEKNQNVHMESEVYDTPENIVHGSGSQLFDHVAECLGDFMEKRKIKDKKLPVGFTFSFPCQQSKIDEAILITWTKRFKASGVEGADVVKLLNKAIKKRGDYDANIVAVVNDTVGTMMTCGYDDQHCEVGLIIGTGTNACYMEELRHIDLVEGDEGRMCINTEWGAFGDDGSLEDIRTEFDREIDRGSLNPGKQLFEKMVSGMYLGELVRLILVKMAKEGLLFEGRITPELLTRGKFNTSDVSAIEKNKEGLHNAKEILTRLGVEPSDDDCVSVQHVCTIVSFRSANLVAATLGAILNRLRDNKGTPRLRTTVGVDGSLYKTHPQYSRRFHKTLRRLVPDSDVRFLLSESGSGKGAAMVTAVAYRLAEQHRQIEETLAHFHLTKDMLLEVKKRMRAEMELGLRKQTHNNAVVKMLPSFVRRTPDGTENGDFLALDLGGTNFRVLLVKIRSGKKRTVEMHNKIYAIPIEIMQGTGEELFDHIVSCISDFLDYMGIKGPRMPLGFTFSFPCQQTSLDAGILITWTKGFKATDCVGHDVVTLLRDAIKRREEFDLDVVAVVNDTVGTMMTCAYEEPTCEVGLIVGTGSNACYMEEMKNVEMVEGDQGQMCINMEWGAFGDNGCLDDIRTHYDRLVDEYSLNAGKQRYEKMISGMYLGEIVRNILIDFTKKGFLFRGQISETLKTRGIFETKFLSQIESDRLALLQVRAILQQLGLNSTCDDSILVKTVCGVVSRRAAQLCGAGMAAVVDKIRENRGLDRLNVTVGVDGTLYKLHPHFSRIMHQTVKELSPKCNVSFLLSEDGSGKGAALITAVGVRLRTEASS
Chain of Trypsin (P00761 whole entry): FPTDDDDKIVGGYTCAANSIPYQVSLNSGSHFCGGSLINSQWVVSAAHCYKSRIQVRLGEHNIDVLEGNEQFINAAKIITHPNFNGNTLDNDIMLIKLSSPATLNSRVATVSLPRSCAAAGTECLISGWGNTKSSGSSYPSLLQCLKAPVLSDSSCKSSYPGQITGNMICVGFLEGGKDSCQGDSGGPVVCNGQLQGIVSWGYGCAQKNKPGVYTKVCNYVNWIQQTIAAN
Chain of CAAX prenyl protease 2 (Saccharomyces cerevisiae S288c, UniProt Q03530) (Q03530 whole entry): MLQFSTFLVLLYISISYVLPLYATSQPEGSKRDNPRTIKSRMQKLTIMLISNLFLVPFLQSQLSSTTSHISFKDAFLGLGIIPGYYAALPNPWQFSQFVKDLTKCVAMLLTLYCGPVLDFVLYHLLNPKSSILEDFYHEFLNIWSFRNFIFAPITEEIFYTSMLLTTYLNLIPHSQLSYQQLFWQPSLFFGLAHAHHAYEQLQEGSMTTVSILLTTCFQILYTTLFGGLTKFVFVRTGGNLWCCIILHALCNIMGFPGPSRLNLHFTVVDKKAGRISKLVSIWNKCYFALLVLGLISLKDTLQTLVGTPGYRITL
Chain of Hexokinase HKDC1 (Q2TB90 whole entry): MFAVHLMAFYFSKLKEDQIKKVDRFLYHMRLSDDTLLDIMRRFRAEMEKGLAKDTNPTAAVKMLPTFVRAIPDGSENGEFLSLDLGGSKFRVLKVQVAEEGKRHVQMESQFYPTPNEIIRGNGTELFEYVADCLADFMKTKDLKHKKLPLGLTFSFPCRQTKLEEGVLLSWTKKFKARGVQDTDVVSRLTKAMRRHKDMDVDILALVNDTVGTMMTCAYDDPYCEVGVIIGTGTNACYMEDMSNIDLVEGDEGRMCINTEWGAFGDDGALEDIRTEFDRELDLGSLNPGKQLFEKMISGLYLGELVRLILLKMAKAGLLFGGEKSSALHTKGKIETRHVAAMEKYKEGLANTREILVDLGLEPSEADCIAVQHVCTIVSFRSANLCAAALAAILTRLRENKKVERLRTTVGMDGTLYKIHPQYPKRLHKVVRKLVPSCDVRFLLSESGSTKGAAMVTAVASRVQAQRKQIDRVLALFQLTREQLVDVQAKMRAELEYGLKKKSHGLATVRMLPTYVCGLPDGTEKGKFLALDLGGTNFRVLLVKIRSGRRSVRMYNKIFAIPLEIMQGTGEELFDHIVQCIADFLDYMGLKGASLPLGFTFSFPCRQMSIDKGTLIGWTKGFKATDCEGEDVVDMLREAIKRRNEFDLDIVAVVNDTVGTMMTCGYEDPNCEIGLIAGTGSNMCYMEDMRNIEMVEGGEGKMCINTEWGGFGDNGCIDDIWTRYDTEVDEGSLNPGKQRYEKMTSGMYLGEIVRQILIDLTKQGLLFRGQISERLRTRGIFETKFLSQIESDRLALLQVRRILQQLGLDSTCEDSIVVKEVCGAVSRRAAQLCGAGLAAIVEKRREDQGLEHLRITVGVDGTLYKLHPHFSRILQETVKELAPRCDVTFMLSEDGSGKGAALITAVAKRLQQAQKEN
Chain of COUP transcription factor 2 (P24468 whole entry): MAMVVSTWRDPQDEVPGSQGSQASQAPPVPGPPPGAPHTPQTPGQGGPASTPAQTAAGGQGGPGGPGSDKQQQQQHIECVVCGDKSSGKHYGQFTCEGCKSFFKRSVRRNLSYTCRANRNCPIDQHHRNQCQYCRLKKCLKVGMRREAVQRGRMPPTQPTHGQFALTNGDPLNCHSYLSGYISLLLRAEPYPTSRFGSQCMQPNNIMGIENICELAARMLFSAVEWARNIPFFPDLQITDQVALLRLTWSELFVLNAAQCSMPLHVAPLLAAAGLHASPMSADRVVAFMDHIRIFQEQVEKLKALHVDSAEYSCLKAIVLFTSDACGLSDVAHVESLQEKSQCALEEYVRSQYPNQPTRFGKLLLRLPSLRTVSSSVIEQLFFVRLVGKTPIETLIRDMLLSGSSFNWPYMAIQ
Chain of ATP-dependent molecular chaperone HSP82 (C4YTQ8 whole entry): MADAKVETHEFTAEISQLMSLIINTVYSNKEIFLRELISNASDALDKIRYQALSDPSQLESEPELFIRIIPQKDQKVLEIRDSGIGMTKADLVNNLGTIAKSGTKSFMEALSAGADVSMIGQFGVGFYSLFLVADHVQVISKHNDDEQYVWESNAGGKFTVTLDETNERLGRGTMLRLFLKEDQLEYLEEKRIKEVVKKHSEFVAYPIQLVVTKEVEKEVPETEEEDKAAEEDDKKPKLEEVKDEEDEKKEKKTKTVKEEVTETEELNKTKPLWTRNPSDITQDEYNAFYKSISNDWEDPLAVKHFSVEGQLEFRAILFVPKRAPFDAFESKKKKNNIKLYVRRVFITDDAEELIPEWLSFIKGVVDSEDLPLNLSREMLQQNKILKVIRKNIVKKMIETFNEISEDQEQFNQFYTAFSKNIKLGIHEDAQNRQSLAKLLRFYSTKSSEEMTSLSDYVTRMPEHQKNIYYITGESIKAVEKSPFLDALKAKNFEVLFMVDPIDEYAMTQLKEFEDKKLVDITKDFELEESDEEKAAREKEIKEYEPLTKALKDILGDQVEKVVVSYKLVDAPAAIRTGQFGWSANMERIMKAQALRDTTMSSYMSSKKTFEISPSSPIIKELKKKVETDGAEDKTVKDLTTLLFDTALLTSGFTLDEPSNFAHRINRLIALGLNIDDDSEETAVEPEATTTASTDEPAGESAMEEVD

In the case of `COc1ccc(CCNc2ncnc3sc(C)cc23)cc1OC`, the IC50 (Jurkat) is reported as 45.3 µM (inactive), the AC50 (INS1) is reported as 0.902 µM (active) and the EC50 [1] is reported as > 180 µM (inactive). For the same compound, the IC50 [2] was > 80 µM (inactive), the EC50 [3] was > 120 µM (not active) and the IC50 [4] was 2.21 µM (active). For the same compound, the AC50 [5] was 0.796 µM (active), the EC50 (cells) was > 29.9 µM (inactive) and the AC50 [6] was 0.739 µM (active). The EC50 [7] was > 120 µM (not active), the AC50 [8] was < 0.26 µM (active) and the EC50 [9] was 0.767 µM (active). The EC50 [10] was > 150 µM (inactive), the EC50 [11] was > 150 µM (inactive) and the IC50 (Galanin receptor type 3) was 0.43 µM (active). The EC50 [12] was > 120 µM (not active).
For `CCOc1ccc(N2C(=O)c3cccnc3C2Nc2ccc(C)c(C)c2)cc1` (centres undefined), the IC50 (Hexokinase-1) was > 80 µM (inactive) and the IC50 (Hexokinase HKDC1) was 77.1 µM (inactive).
In the case of `CCNc1nc(C)c(CN(C(C)=O)c2ccccc2)nc1C#N`, the EC50 (Kallikrein-7) is reported as > 69.5 µM (inactive), the AC50 (CAAX prenyl protease 2 [13]) is reported as 48.9 µM (active) and the AC50 (CAAX prenyl protease 2 [14]) is reported as 5.91 µM (active). The AC50 (Trypsin) was 5.26 µM (active).
For `COC(=O)c1ccc(NC(=O)COc2ccc(S(=O)(=O)N3CCCCC3)cc2)cc1`, the EC50 [15] was 0.225 µM (active) and the EC50 [16] was 590 nM (active) and 280 nM (active).
